In the NIST ThermoML archive (doi:10.1021/je700499d):
Numbers after ± are expanded uncertainties.

Columns and labels:
[1] = 101 kPa, Liquid
[2] = xn = mol fraction of the nth substance listed; settings: 101 kPa, Liquid

OCCO [1,2-ethanediol]
[1]
Settings	mass density [kg/m3]
293.15 K	1113.55 ± 0.61
303.15 K	1106.82 ± 0.65
313.15 K	1099.8 ± 0.69
323.15 K	1092.59 ± 0.73

OCCO [1,2-ethanediol] + OCCCCO
[2], x2 = 0
Settings	mass density [kg/m3]
293.15 K	1113.55 ± 0.61
303.15 K	1106.82 ± 0.65
313.15 K	1099.8 ± 0.69
323.15 K	1092.59 ± 0.73

CC(O)CO (stereo not drawn) [1,2-propanediol]
[1]
Settings	mass density [kg/m3]
293.15 K	1036.57 ± 0.54
298.15 K	1032.86 ± 0.56
303.15 K	1029.15 ± 0.58
308.15 K	1025.57 ± 0.6
313.15 K	1021.44 ± 0.62
318.15 K	1017.59 ± 0.64
323.15 K	1013.74 ± 0.66
328.15 K	1009.71 ± 0.68

CC(O)CO (stereo not drawn) [1,2-propanediol] + OCCCCO
[2], x2 = 0
Settings	mass density [kg/m3]
293.15 K	1036.57 ± 0.54
298.15 K	1032.86 ± 0.56
303.15 K	1029.15 ± 0.58
308.15 K	1025.57 ± 0.6
313.15 K	1021.44 ± 0.62
318.15 K	1017.59 ± 0.64
323.15 K	1013.74 ± 0.66
328.15 K	1009.71 ± 0.68

OCCCCO [1,4-butanediol]
[1]
Settings	mass density [kg/m3]
293.15 K	1016.37 ± 0.49
298.15 K	1013.04 ± 0.51
303.15 K	1009.96 ± 0.53
308.15 K	1006.75 ± 0.55
313.15 K	1003.55 ± 0.57
318.15 K	1000.72 ± 0.59
323.15 K	997.8 ± 0.61
328.15 K	994.41 ± 0.64

OCCCCO [1,4-butanediol] + CC(O)CO
mass density [kg/m3], [2]
Settings	x1 = 0.0858	x1 = 0.1743	x1 = 0.2657	x1 = 0.3602	x1 = 0.4578	x1 = 0.5588	x1 = 0.6633	x1 = 0.7716	x1 = 0.8837	x1 = 1
293.15 K	1034.9 ± 0.53	1033.19 ± 0.52	1031.46 ± 0.52	1029.77 ± 0.51	1027.85 ± 0.51	1025.52 ± 0.51	1023.19 ± 0.5	1020.85 ± 0.5	1018.55 ± 0.49	1016.37 ± 0.49
298.15 K	1031.31 ± 0.55	1029.67 ± 0.54	1028 ± 0.54	1026.34 ± 0.53	1024.48 ± 0.53	1022.17 ± 0.53	1019.88 ± 0.52	1017.57 ± 0.52	1015.25 ± 0.51	1013.04 ± 0.51
303.15 K	1027.73 ± 0.57	1026.21 ± 0.56	1024.62 ± 0.56	1023.01 ± 0.55	1021.19 ± 0.55	1018.94 ± 0.55	1016.79 ± 0.54	1014.47 ± 0.54	1012.17 ± 0.53	1009.96 ± 0.53
308.15 K	1024.25 ± 0.59	1022.83 ± 0.59	1021.31 ± 0.58	1019.74 ± 0.58	1018 ± 0.57	1015.76 ± 0.57	1013.64 ± 0.56	1011.33 ± 0.56	1009.03 ± 0.55	1006.75 ± 0.55
313.15 K	1020.28 ± 0.61	1019 ± 0.61	1017.64 ± 0.6	1016.12 ± 0.6	1014.43 ± 0.59	1012.35 ± 0.59	1010.33 ± 0.58	1008.06 ± 0.58	1005.78 ± 0.57	1003.55 ± 0.57
318.15 K	1016.58 ± 0.63	1015.49 ± 0.63	1014.21 ± 0.62	1012.83 ± 0.62	1011.22 ± 0.61	1009.28 ± 0.61	1007.33 ± 0.6	1005.16 ± 0.6	1002.94 ± 0.59	1000.72 ± 0.59
323.15 K	1012.91 ± 0.65	1011.97 ± 0.65	1010.78 ± 0.64	1009.47 ± 0.64	1007.97 ± 0.63	1006.13 ± 0.63	1004.3 ± 0.62	1002.18 ± 0.62	1000.03 ± 0.62	997.8 ± 0.61
328.15 K	1009 ± 0.67	1008.2 ± 0.67	1007.11 ± 0.66	1005.84 ± 0.66	1004.39 ± 0.66	1002.63 ± 0.65	1000.83 ± 0.65	998.81 ± 0.64	996.69 ± 0.64	994.41 ± 0.64

OCCCCO [1,4-butanediol] + OCCCO
[2], x1 = 1
Settings	mass density [kg/m3]
293.15 K	1016.37 ± 0.49
298.15 K	1013.04 ± 0.51
303.15 K	1009.96 ± 0.53
308.15 K	1006.75 ± 0.55
313.15 K	1003.55 ± 0.57
318.15 K	1000.72 ± 0.59
323.15 K	997.8 ± 0.61
328.15 K	994.41 ± 0.64

OCCCCO [1,4-butanediol] + OCCO
mass density [kg/m3], [2]
Settings	x1 = 0.0711	x1 = 0.1469	x1 = 0.2279	x1 = 0.3147	x1 = 0.4078	x1 = 0.5081	x1 = 0.6164	x1 = 0.7337	x1 = 0.8611	x1 = 1
293.15 K	1102.71 ± 0.6	1092.13 ± 0.58	1081.71 ± 0.57	1071.48 ± 0.56	1061.52 ± 0.54	1051.91 ± 0.53	1042.67 ± 0.52	1033.74 ± 0.51	1024.96 ± 0.5	1016.37 ± 0.49
298.15 K	1099.09 ± 0.61	1088.58 ± 0.6	1078.21 ± 0.59	1068.02 ± 0.57	1058.12 ± 0.56	1048.56 ± 0.55	1039.34 ± 0.54	1030.4 ± 0.53	1021.64 ± 0.52	1013.04 ± 0.51
303.15 K	1096.06 ± 0.63	1085.57 ± 0.62	1075.22 ± 0.61	1065.04 ± 0.59	1055.16 ± 0.58	1045.58 ± 0.57	1036.35 ± 0.56	1027.39 ± 0.55	1018.61 ± 0.54	1009.96 ± 0.53
308.15 K	1092.51 ± 0.65	1082.1 ± 0.64	1071.84 ± 0.63	1061.7 ± 0.61	1051.85 ± 0.6	1042.33 ± 0.59	1033.12 ± 0.58	1024.17 ± 0.57	1015.41 ± 0.56	1006.75 ± 0.55
313.15 K	1089.15 ± 0.67	1078.8 ± 0.66	1068.56 ± 0.65	1058.5 ± 0.64	1048.65 ± 0.62	1039.15 ± 0.61	1029.95 ± 0.6	1020.99 ± 0.59	1012.22 ± 0.58	1003.55 ± 0.57
318.15 K	1085.69 ± 0.7	1075.44 ± 0.68	1065.32 ± 0.67	1055.33 ± 0.66	1045.62 ± 0.64	1036.15 ± 0.63	1027.01 ± 0.62	1018.1 ± 0.61	1009.36 ± 0.6	1000.72 ± 0.59
323.15 K	1082.18 ± 0.72	1072.03 ± 0.7	1061.97 ± 0.69	1052.09 ± 0.68	1042.43 ± 0.67	1033.05 ± 0.65	1023.96 ± 0.64	1015.11 ± 0.63	1006.4 ± 0.62	997.8 ± 0.61
328.15 K	1078.33 ± 0.74	1068.25 ± 0.72	1058.28 ± 0.71	1048.46 ± 0.7	1038.86 ± 0.69	1029.53 ± 0.67	1020.51 ± 0.66	1011.66 ± 0.65	1002.99 ± 0.64	994.41 ± 0.64

OCCCO [propan-1,3-diol]
[1]
Settings	mass density [kg/m3]
293.15 K	1053.66 ± 0.59
298.15 K	1050.29 ± 0.61
303.15 K	1047.09 ± 0.63
308.15 K	1043.92 ± 0.65
313.15 K	1040.61 ± 0.67
318.15 K	1037.6 ± 0.69
323.15 K	1034.51 ± 0.71
328.15 K	1031 ± 0.73

OCCCO [propan-1,3-diol] + OCCCCO
mass density [kg/m3], [2]
Settings	293.15 K	298.15 K	303.15 K	308.15 K	313.15 K	318.15 K	323.15 K	328.15 K
x2 = 0	1053.66 ± 0.59	1050.29 ± 0.61	1047.09 ± 0.63	1043.92 ± 0.65	1040.61 ± 0.67	1037.6 ± 0.69	1034.51 ± 0.71	1031 ± 0.73
x2 = 0.0858	1049.89 ± 0.57	1046.56 ± 0.59	1043.39 ± 0.61	1040.26 ± 0.63	1036.99 ± 0.65	1034.04 ± 0.68	1030.99 ± 0.7	1027.53 ± 0.72
x2 = 0.1743	1046.21 ± 0.56	1042.87 ± 0.58	1039.74 ± 0.6	1036.61 ± 0.62	1033.39 ± 0.64	1030.48 ± 0.66	1027.5 ± 0.68	1024.08 ± 0.71
x2 = 0.2657	1042.49 ± 0.55	1039.2 ± 0.57	1036.07 ± 0.59	1032.95 ± 0.61	1029.75 ± 0.63	1026.88 ± 0.65	1023.9 ± 0.67	1020.5 ± 0.69
x2 = 0.3602	1038.78 ± 0.54	1035.48 ± 0.56	1032.39 ± 0.58	1029.26 ± 0.6	1026.07 ± 0.62	1023.21 ± 0.64	1020.26 ± 0.66	1016.86 ± 0.68
x2 = 0.4578	1035.05 ± 0.53	1031.77 ± 0.55	1028.69 ± 0.57	1025.57 ± 0.59	1022.39 ± 0.61	1019.53 ± 0.63	1016.6 ± 0.65	1013.22 ± 0.67
x2 = 0.5523	–	–	1024.89 ± 0.56	–	–	–	–	–
x2 = 0.5588	1031.27 ± 0.52	1027.98 ± 0.54	–	1021.77 ± 0.58	1018.61 ± 0.6	1015.78 ± 0.62	1012.86 ± 0.64	1009.51 ± 0.66
x2 = 0.6574	–	–	1021.16 ± 0.55	–	–	–	–	–
x2 = 0.6633	1027.52 ± 0.51	1024.23 ± 0.53	–	1018.03 ± 0.57	1014.87 ± 0.59	1012.06 ± 0.61	1009.17 ± 0.63	1005.8 ± 0.66
x2 = 0.7669	–	–	1017.41 ± 0.54	–	–	–	–	–
x2 = 0.7716	1023.77 ± 0.5	1020.48 ± 0.52	–	1014.27 ± 0.56	1011.08 ± 0.58	1008.27 ± 0.6	1005.36 ± 0.63	1001.99 ± 0.65
x2 = 0.881	–	–	1013.68 ± 0.54	–	–	–	–	–
x2 = 0.8837	1020.05 ± 0.5	1016.74 ± 0.52	–	1010.51 ± 0.56	1007.33 ± 0.58	1004.52 ± 0.6	1001.61 ± 0.62	998.24 ± 0.64
